Laboratory results taken from patent US4424218A, “Novel 3 α-amino steroids” (Roussel Uclaf, priority 1979, dated 1984).
Where a name gives a salt, the structure may show the parent alone. Read-outs that look alike come from different tables or passages of the source.

Legend:
anaphylactic shock = test: Adjuvant for anaphylactic shock (beef seric albumin); format: in vivo, mice; conditions: intraplantary, admixed with antigen; antigen intravenously 8 days later
From the text: C. Adjuvant for anaphylactic shock
The administration to animals of a compound capable of stimulating the activity of immunitary systems leads to an increase in response to administration of antigen to which the animal is sensitive. Male mice weighing between 30 to 35 g were sensitized by intraplantary administration of beef seric albumin. 8 days later, the mice received intraveinously an antigen and under the minimum sensibilization conditions, the control animals were not in mortal shock at the time of the last administration.
The active dose which provoked a mortality equal to or greater than 50% of the animals was determined and the results are reported in Table I.

[1] = system: rosettes to sheep red corpuscles; test: Test of Rosettes to sheep red corpuscles; format: in vivo, rats; conditions: Rattus norvegicus, po, 24 h, read-out: immunostimulating dose which multiplied by 2 the percentage of rosettes observed in the control animals
From the text: D. Test of Rosettes to sheep red corpuscles
The administration to animals of a product capable of stimulating the immunitary systems leads to an increase of their capacity of reaction to the injection of an immunogenic product. 3 month old male rats were sensibilized by intraperitoneal administration of sheep erythrocytoes on day 0 and 7 days later, the spleen was removed and splenocytes were placed in contact with sheep erythrocytes. The percentage of leucocytes around the erythrocytes in the form of rosettes was determined. The test compounds were orally administered daily from day-1 to day 1 and immunostimulating dose is the dose of product which multiplied by 2 the percentage of rosettes observed in the control animals and the results are reported in Table II.

mice = test: Acute toxicity; format: in vivo; conditions: orally
IgE production = test: Potentialization of IgE production (passive cutaneous anaphylaxia test); format: in vivo, mice; conditions: for minimal effective dose: Mus musculus, sc, read-out: active dose, potentialization of IgE production
Protocol: A. Potentialization of IgE production
Female mice weighing between 28 to 30 g were immunized by subcutaneous administration of an ovalbumin-alumina mixture on days 0 and 14 and serum was taken on the 21st day for dosage of IgE antibodies formed. The respective quantities of antigen (ovalbumin) and adjuvant (alumina) injected was selected so as to keep production of antibodies at a minimum. The test compounds were administered subcutaneously 3 hours before the first immunization.
The research of the larger dilution of serum which gives a spot of a 11 to 13 mm diameter for each animal is made. An adequate dilution of serum was injected intradermally with a volume of 0.1 ml in male rats weighing about 250 g in the region of the back. 48 hours later, the animals received veinously 0.5 ml of a solution of 0.5% of ovalbumin and 1% of Evans blue in an isotonic solution of sodium chloride. 30 minutes after this injection, the animals were killed by exsanguination and the diameter of the blue spot on turned over skin is measured.

secondary arthritis = test: Adjuvant for chronic arthritis (Freund type adjuvant); format: in vivo, rat; conditions: for ED50: Rattus norvegicus, read-out: active dose which diminished the secondary inflammation by at least 50%
Protocol: B. Adjuvant for chronic arthritis
The injection of a Freund type adjuvant (Mycobacterium butyricum at 6 mg/ml in Bayol 55) into the posterium paw of a rat provokes a primary inflammatory lesion and then after a latency period of 13 to 15 days, initiation of secondary inflammation affecting the other non-injected rear paw as well as the front paws, the ears and the tail.
Male rats aged 42 to 50 days received an intraplantary injection of 0.10 ml of Freund adjuvant and treatment started the day of the adjuvant injection and continued until the animals were killed on the 17th day. […] In this test, the effect on secondary inflammations was essentially observed, it was determined by the arthritis of the non-injected rear paw, arthritis of the front paws and the inflammation of the ears and tail.

[2] = orally, daily from day -1 to day 1

Structure (SMILES)	active dose which provoked a mortality equal to or greater than 50% of the animals (anaphylactic shock) [mg per animal]	ED (2-fold rosettes) [1, 2] [mg/kg]	DL0 (lethal dose LD0, maximum dose which did not cause any mortality after 8 days) (mice) [mg/kg]	also measured
C[C@H](N)C(=O)N[C@@H]1CC[C@@]2(C)[C@@H](CC[C@@H]3[C@@H]2CC[C@]2(C)[C@@H]([C@H](C)O)CC[C@@H]32)C1 [Example 2, (2S) 2-amino-N-[(20S)-5α-pregnan-20-ol-3α-yl]-propanamide]	0.5	1	200	–
C[C@H](O)[C@H]1CC[C@H]2[C@@H]3CC[C@H]4C[C@H](NC(=O)[C@@H](N)CCC(=O)O)CC[C@]4(C)[C@H]3CC[C@]12C [Example 3]	≤ 1	–	≥ 400	–
C[C@H](O)[C@H]1CC[C@H]2[C@@H]3CC[C@H]4C[C@H](NC(=O)[C@@H](N)CO)CC[C@]4(C)[C@H]3CC[C@]12C [Example 4]	–	–	≥ 400	–
C[C@H](O)[C@H]1CC[C@H]2[C@@H]3CC[C@H]4C[C@H](NC(=O)[C@@H](N)Cc5ccccc5)CC[C@]4(C)[C@H]3CC[C@]12C [Example 5]	5	–	≥ 400	–
C[C@H](O)[C@H]1CC[C@H]2[C@@H]3CC[C@H]4C[C@H](NC(=O)[C@@H](N)Cc5c[nH]c6ccccc56)CC[C@]4(C)[C@H]3CC[C@]12C [Example 6, (2S) 2-amino-N-[(20S) 5α-pregnane-20-ol-3α-yl]-1H-indol-3-propanamide]	5	2	≥ 1000	–
C[C@H](O)[C@H]1CC[C@H]2[C@@H]3CC[C@H]4C[C@H](NC(=O)[C@@H]5CCCN5)CC[C@]4(C)[C@H]3CC[C@]12C [Example 7]	2	> 5	≥ 800	–
C[C@H](O)[C@H]1CC[C@H]2[C@@H]3CC[C@H]4C[C@H](NC(=O)CNC(=O)CN)CC[C@]4(C)[C@H]3CC[C@]12C [Example 8]	1	–	≥ 400	–
C[C@H](O)[C@H]1CC[C@H]2[C@@H]3CC[C@H]4C[C@H](NC(=O)c5cccnc5)CC[C@]4(C)[C@H]3CC[C@]12C [Example 9, N-[(20S)5α-pregnan-20-ol-3α-yl]-3-pyridinecarboxamide]	5	5	–	–
C[C@H](O)[C@@]1(O)CC[C@H]2[C@@H]3CC[C@H]4C[C@H](NC(=O)CN)CC[C@]4(C)[C@H]3CC[C@@]21C [Example 10, 2-amino-N-[(20S) 5α-pregnane-17α,20-diol-3α-yl]-acetamide hydrochloride]	1	–	≥ 600	–
C[C@H](O)[C@H]1CC[C@H]2[C@@H]3CC[C@H]4C[C@H](NC(=O)CN)CC[C@@H]4[C@H]3CC[C@]12C [Example 11, 2-amino-N-[(20S) 19-nor-5α-pregnane-20-ol-3α-yl]-acetamide hydrochloride]	0.5	5	≥ 400	–
CC(=O)[C@@]1(O)CC[C@H]2[C@@H]3CC[C@H]4C[C@H](NC(=O)CN)CC[C@]4(C)[C@H]3CC[C@@]21C [Example 12, 2-amino-N-[(5α-pregnane-17α-ol-20-one-3α-yl]-acetamide hydrochloride]	–	5	–	–
CCOC(=O)N[C@@H]1CC[C@@]2(C)[C@@H](CC[C@@H]3[C@@H]2CC[C@]2(C)[C@@H]([C@H](C)O)CC[C@@H]32)C1 [Example 14, Ethyl N-[(20S)5α-pregnane-20-ol-3α-yl]-carbamate]	5	–	≥ 400	–
C[C@H](O)[C@H]1CC[C@H]2[C@@H]3CC[C@H]4C[C@H](N(C)C(=O)CN)CC[C@]4(C)[C@H]3CC[C@]12C.Cl [Example 15, 2-amino-N-[(20S) 5α-pregnane-20-ol-3α-yl]-N-methyl-acetamide hydrochloride]	0.5	–	≥ 200	ED (2-fold rosettes) [1]: 10 mg/kg
c1ccc([C@H]2CN3CCSC3=N2)cc1 [Levamisole, reference compound]	–	–	–	minimal effective dose (IgE production; subcutaneous, 3 hours before first immunization, ovalbumin-alumina): 20 mg/kg; ED50 (secondary arthritis; po, orally, treatment from day of adjuvant injection to 17th day): 50 mg/kg
C[C@H](O)[C@H]1CC[C@H]2[C@@H]3CC[C@H]4C[C@H](NC(=O)CN)CC[C@]4(C)[C@H]3CC[C@]12C.Cl [Product A, (20S) 3α-[(aminoacetyl)-amino]-5α-pregnane-20-ol hydrochloride]	–	–	–	minimal effective dose (IgE production): 0.5 mg/kg; immunostimulating activity in IgE test (in words) (IgE production; subcutaneous, compared with Levamisole): greater immunostimulating activity than Levamisole; ED50 (secondary arthritis; sc): 1 mg/kg; activity against secondary phenomena of arthritis of adjuvant (in words) (secondary arthritis; subcutaneously, compared with Levamisole): very active against secondary phenomena of arthritis of adjuvant
